ChEMBL document CHEMBL4152309, “N-phenylsulfonyl-3,5-bis(arylidene)-4-piperidone derivatives as activation NF-κB inhibitors in hepatic carcinoma cell lines” (Eur J Med Chem, 2018)
Calls of active or inactive are those of the source. No cut-off for these calls is given here.

What was measured:
QGY-7703 = experiment: Cytotoxicity against human QGY7703 cells assessed as reduction in cell viability after 24 hrs by MTT assay; type: functional, cell-based; settings: QGY-7703, 24 h
RAW264.7 [1] = experiment: Anti-inflammatory activity in mouse RAW264.7 cells assessed as inhibition of LPS-induced TNFalpha secretion at 10 uM pretreated for 2 hrs followed by LPS stimulation and measured after 22 hrs by ELISA; type: functional, cell-based
HepG2 = experiment: Cytotoxicity against human HepG2 cells assessed as reduction in cell viability after 24 hrs by MTT assay; type: functional, cell-based; settings: HepG2, 24 h
SMMC-7721 = experiment: Cytotoxicity against human SMMC7721 cells assessed as reduction in cell viability after 24 hrs by MTT assay; type: functional, cell-based; settings: SMMC-7721, 24 h
[2] = Cytotoxicity against human HHL5 cells assessed as reduction in cell viability after 24 hrs by MTT assay; type: cell-based; settings: HHL-5, 24 h
[3] = Cytotoxicity against mouse RAW264.7 cells assessed as cell viability at 10 uM after 24 hrs by MTT assay relative to control; type: cell-based; settings: read-out: Activity
L02 = experiment: Cytotoxicity against human LO2 cells assessed as reduction in cell viability after 24 hrs by MTT assay; type: cell-based; settings: L02, 24 h
RAW264.7 [4] = experiment: Anti-inflammatory activity in mouse RAW264.7 cells assessed as inhibition of LPS-induced IL-6 secretion at 10 uM pretreated for 2 hrs followed by LPS stimulation and measured after 22 hrs by ELISA; type: functional, cell-based
RAW264.7 [5] = experiment: Anti-inflammatory activity in mouse RAW264.7 cells assessed as inhibition of LPS-induced TNFalpha secretion at 30 uM pretreated for 2 hrs followed by LPS stimulation and measured after 22 hrs by ELISA; type: functional, cell-based
RAW264.7 [6] = experiment: Anti-inflammatory activity in mouse RAW264.7 cells assessed as inhibition of LPS-induced IL-6 secretion at 30 uM pretreated for 2 hrs followed by LPS stimulation and measured after 22 hrs by ELISA; type: functional, cell-based

SMILES | IC50 (QGY-7703) [µM] | inhibition (RAW264.7 [1]) | IC50 (HepG2) [µM] | IC50 (SMMC-7721) [µM] | IC50 [2] [µM] | viability at 24 h, 10 µM [3] [%] | IC50 (L02) [µM] | inhibition (RAW264.7 [4]) | inhibition (RAW264.7 [5]) | inhibition (RAW264.7 [6])
N#Cc1ccc(/C=C2\CN(S(=O)(=O)c3ccc(F)cc3)C/C(=C\c3ccccc3F)C2=O)cc1 | 20.1 | Active | 8.18 | 10.2 | 19 | > 80 | 21.9 | – | – | –
CC(=O)Nc1ccc(S(=O)(=O)N2C/C(=C\c3cccc([N+](=O)[O-])c3)C(=O)/C(=C/c3ccccc3F)C2)cc1 | 7.85 | – | 8.8 | 10.2 | 20 | > 80 | 18.4 | Active | – | –
N#Cc1ccc(/C=C2\CN(S(=O)(=O)c3ccc(F)cc3)C/C(=C\c3ccc(C#N)cc3)C2=O)cc1 | 11.3 | Active | 11.5 | 20.1 | 19.2 | > 80 | 18.9 | – | – | –
COc1cc(/C=C2\CN(S(=O)(=O)c3ccc(F)cc3)C/C(=C\c3ccccc3F)C2=O)cc(OC)c1OC | 13.3 | – | 7.94 | 6.34 | 15.9 | > 80 | 17.6 | Active | – | –
S=C(S)N1CCCC1 | – | – | – | – | – | – | – | – | Active | Active
COc1cc(/C=C2\CN(S(=O)(=O)c3ccc(NC(C)=O)cc3)C/C(=C\c3ccccc3F)C2=O)cc(OC)c1OC | 2.68 | – | 4.75 | 3.92 | 12.2 | > 80 | 14 | – | – | –
CC(=O)Nc1ccc(S(=O)(=O)N2C/C(=C\c3ccc(C#N)cc3)C(=O)/C(=C/c3ccc(C#N)cc3)C2)cc1 | 3.32 | – | 4.88 | 7.12 | 11.9 | > 80 | 14 | – | – | –
O=C1/C(=C/c2cccc([N+](=O)[O-])c2)CN(S(=O)(=O)c2ccc(F)cc2)C/C1=C\c1cccc([N+](=O)[O-])c1 | 11.9 | – | 8.76 | 3.98 | 11.2 | > 80 | 15.5 | – | – | –
COc1cc(/C=C2\CN(S(=O)(=O)c3ccc(F)cc3)C/C(=C\c3ccccc3F)C2=O)cc(OC)c1 | 14 | – | 9.3 | 6.89 | 16 | > 80 | 18.4 | – | – | –
CC(=O)Nc1ccc(S(=O)(=O)N2C/C(=C\c3cccc([N+](=O)[O-])c3)C(=O)/C(=C/c3cccc([N+](=O)[O-])c3)C2)cc1 | 6.76 | – | 7.14 | 8.42 | 17.8 | > 80 | 15.8 | – | – | –
COc1cc(/C=C2\CN(S(=O)(=O)c3ccc(F)cc3)C/C(=C\c3cccc([N+](=O)[O-])c3)C2=O)cc(OC)c1OC | 3.27 | – | 3.25 | 4.9 | 11.1 | > 80 | 18.8 | – | – | –
COc1cc(/C=C2\CN(S(=O)(=O)c3ccc(NC(C)=O)cc3)C/C(=C\c3cc(OC)c(OC)c(OC)c3)C2=O)cc(OC)c1 | 2.02 | – | 4.14 | 4.2 | 13.5 | > 80 | 15.9 | – | – | –
O=C1/C(=C/c2cccc([N+](=O)[O-])c2)CN(S(=O)(=O)c2ccc(F)cc2)C/C1=C\c1ccccc1F | 14.9 | – | 7.04 | 7.82 | 17.8 | > 80 | 17 | – | – | –
